{
  "source": "patent US20020137929A1",
  "about": "“1 - (3-heterocyclylphenyl) isothiourea, -isourea, -guanidine and -amidine herbicidal agents” (Intellectual Property Department, BASF Aktiengesellschaft, priority 1998, published 2002)",
  "key": {"ABUTH (Velvetleaf)": {"tested_on": "ABUTH (Velvetleaf)", "test": "Postemergence herbicidal evaluation", "assay_type": "in vivo, Abutilon theophrasti", "conditions": "postemergence", "outline": "(§1)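 First, seedlings were raised for around two weeks. Next, test material in 50/50 acetone/water containing 0.5% TWEEN 20 was sprayed through a nozzle at 40 psi, equivalent to about 0.0156–0.500 kg/ha. Finally, after 4–5 weeks in the greenhouse, plants were rated 0–9.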"}, "AMBEL (Ragweed, Common) [1]": {"tested_on": "AMBEL (Ragweed, Common)", "test": "Postemergence herbicidal evaluation", "assay_type": "in vivo, Ambrosia artemisifolia", "conditions": "postemergence", "outline": "as §1"}, "[2]": {"tested_on": "CHEAL (Lambsquarters, Common)", "test": "Postemergence herbicidal evaluation", "assay_type": "in vivo, Chenopodium album", "conditions": "postemergence", "outline": "as §1"}, "ECHCG (Barnyardgrass)": {"tested_on": "ECHCG (Barnyardgrass)", "test": "Postemergence herbicidal evaluation", "assay_type": "in vivo, Echinochloa crus-galli", "conditions": "postemergence", "outline": "as §1"}, "[3]": {"tested_on": "GLXMAW (Soybean, Williams)", "test": "Postemergence herbicidal evaluation", "assay_type": "in vivo, Glycine max, (L.) Merr. cv Williams", "conditions": "postemergence", "outline": "as §1"}, "ORYSAT (Rice, Tebonnet)": {"tested_on": "ORYSAT (Rice, Tebonnet)", "test": "Postemergence herbicidal evaluation", "assay_type": "in vivo, Oryza sativa, (L.) Tebonnet", "conditions": "postemergence", "outline": "as §1"}, "ZEAMX (Corn, Field)": {"tested_on": "ZEAMX (Corn, Field)", "test": "Postemergence herbicidal evaluation", "assay_type": "in vivo, Zea mays", "conditions": "postemergence", "outline": "as §1"}, "AMBEL (Ragweed, Common) [4]": {"tested_on": "AMBEL (Ragweed, Common)", "test": "Preemergence herbicidal evaluation", "assay_type": "in vivo, Ambrosia artemisifolia", "conditions": "preemergence, rated 4-5 weeks after treatment, 0-9 scale", "outline": "(§2)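 Steps: mix seeds into potting soil; plant atop ~1 inch soil; spray compound in aqueous acetone (~0.0156-0.500 kg/ha equivalent); maintain in greenhouse with watering; rate visually 0-9 versus control at 4-5 weeks.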"}, "CASOB (Sicklepod)": {"tested_on": "CASOB (Sicklepod)", "test": "Preemergence herbicidal evaluation", "assay_type": "in vivo, Cassia obtusifolia", "conditions": "preemergence, rated 4-5 weeks after treatment, 0-9 scale", "outline": "as §2"}, "[5]": {"tested_on": "CHEAL (Lambsquarters, Common)", "test": "Preemergence herbicidal evaluation", "assay_type": "in vivo, Chenopodium album", "conditions": "preemergence, rated 4-5 weeks after treatment, 0-9 scale", "outline": "as §2"}, "GALAP (Galium)": {"tested_on": "GALAP (Galium)", "test": "Preemergence herbicidal evaluation", "assay_type": "in vivo, Galium aparine", "conditions": "preemergence, rated 4-5 weeks after treatment, 0-9 scale", "outline": "as §2"}, "CYPSE (Flatsedge) [6]": {"tested_on": "CYPSE (Flatsedge)", "test": "Preemergence weed control under flooded paddy conditions", "assay_type": "in vivo, Cyperus serotinus", "conditions": "rated 3-4 weeks after treatment", "outline": "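Greenhouse paddy assay. Acetone/water (50/50 v/v) solutions dosed into flood water, equivalent to about 0.0313 to 0.500 kg/ha active ingredient, over seeds planted 0.5 cm deep in silt loam. Score: 0-9 visual, based on stand, vigor, malformation, size and chlorosis, 3 to 4 weeks after treatment.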"}, "CYPIR (Rice Flatsedge)": {"tested_on": "CYPIR (Rice Flatsedge)", "test": "Postemergence weed control under flooded paddy conditions", "assay_type": "in vivo, Cyperus iria", "conditions": "postemergence weeds, rated 3 to 4 weeks after treatment", "outline": "(§3)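 Injury ratings (0–9 scale covering stand, vigor, malformation, size, chlorosis and overall appearance versus control) were made three to four weeks after treatment. Test material, about 0.0313 to 0.500 kg/ha a.i. in 50/50 v/v aqueous/acetone, was added to flood water 1.5 to 3 cm deep over 3 to 5 cm weeds and 1.5 to 2.5 leaf rice.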"}, "CYPSE (Flatsedge) [7]": {"tested_on": "CYPSE (Flatsedge)", "test": "Postemergence weed control under flooded paddy conditions", "assay_type": "in vivo, Cyperus serotinus", "conditions": "postemergence weeds, rated 3 to 4 weeks after treatment", "outline": "as §3"}},
  "data": [
    {"smiles": "CCOC(=O)CN1C(=O)C(CC(=O)NS(=O)(=O)c2ccccc2)SC1=Nc1cc(-n2c(=O)cc(C(F)(F)F)n(C)c2=O)c(F)cc1Cl", "note": "(stereo not drawn) [Compound 100, Ethyl 2-{{2-chloro-5-[3,6-dihydro-3-methyl-2,6-dioxo-4-(trifluoromethyl)-1(2H)-pyrimidinyl]-4-fluorophenyl}imino}-4-oxo-5-{[(phenylsulfonyl)-carbamoyl]methyl]-3-thiazolidineacetate]", "values": [
      {"measurement": "herbicidal rating ABUTH", "setting": "ABUTH (Velvetleaf); rate 0.0156 kg/ha", "result": 9.0},
      {"measurement": "herbicidal rating ABUTH", "setting": "ABUTH (Velvetleaf); rate 0.0313 kg/ha", "result": 9.0},
      {"measurement": "herbicidal rating ABUTH", "setting": "ABUTH (Velvetleaf); rate 0.0625 kg/ha", "result": 9.0},
      {"measurement": "herbicidal rating ABUTH", "setting": "ABUTH (Velvetleaf); rate 0.1250 kg/ha", "result": 9.0},
      {"measurement": "herbicidal rating AMBEL", "setting": "AMBEL (Ragweed, Common) [1]; rate 0.0156 kg/ha", "result": 9.0},
      {"measurement": "herbicidal rating AMBEL", "setting": "AMBEL (Ragweed, Common) [1]; rate 0.0313 kg/ha", "result": 9.0},
      {"measurement": "herbicidal rating AMBEL", "setting": "AMBEL (Ragweed, Common) [1]; rate 0.0625 kg/ha", "result": 9.0},
      {"measurement": "herbicidal rating AMBEL", "setting": "AMBEL (Ragweed, Common) [1]; rate 0.1250 kg/ha", "result": 7.0},
      {"measurement": "herbicidal rating CHEAL", "setting": "[2]; rate 0.0156 kg/ha", "result": 5.0},
      {"measurement": "herbicidal rating CHEAL", "setting": "[2]; rate 0.0313 kg/ha", "result": 7.0},
      {"measurement": "herbicidal rating CHEAL", "setting": "[2]; rate 0.0625 kg/ha", "result": 7.0},
      {"measurement": "herbicidal rating CHEAL", "setting": "[2]; rate 0.1250 kg/ha", "result": 9.0},
      {"measurement": "herbicidal rating ECHCG", "setting": "ECHCG (Barnyardgrass); rate 0.0156 kg/ha", "result": 1.0},
      {"measurement": "herbicidal rating ECHCG", "setting": "ECHCG (Barnyardgrass); rate 0.0313 kg/ha", "result": 3.0},
      {"measurement": "herbicidal rating ECHCG", "setting": "ECHCG (Barnyardgrass); rate 0.0625 kg/ha", "result": 4.0},
      {"measurement": "herbicidal rating ECHCG", "setting": "ECHCG (Barnyardgrass); rate 0.1250 kg/ha", "result": 7.0},
      {"measurement": "herbicidal rating GLXMAW", "setting": "[3]; rate 0.0156 kg/ha", "result": 5.5},
      {"measurement": "herbicidal rating GLXMAW", "setting": "[3]; rate 0.0313 kg/ha", "result": 6.0},
      {"measurement": "herbicidal rating GLXMAW", "setting": "[3]; rate 0.0625 kg/ha", "result": 6.5},
      {"measurement": "herbicidal rating GLXMAW", "setting": "[3]; rate 0.1250 kg/ha", "result": 7.0},
      {"measurement": "herbicidal rating ORYSAT", "setting": "ORYSAT (Rice, Tebonnet); rate 0.0156 kg/ha", "result": 3.0},
      {"measurement": "herbicidal rating ORYSAT", "setting": "ORYSAT (Rice, Tebonnet); rate 0.0313 kg/ha", "result": 3.5},
      {"measurement": "herbicidal rating ORYSAT", "setting": "ORYSAT (Rice, Tebonnet); rate 0.0625 kg/ha", "result": 3.5},
      {"measurement": "herbicidal rating ORYSAT", "setting": "ORYSAT (Rice, Tebonnet); rate 0.1250 kg/ha", "result": 3.5},
      {"measurement": "herbicidal rating ZEAMX", "setting": "ZEAMX (Corn, Field); rate 0.0156 kg/ha", "result": 4.5},
      {"measurement": "herbicidal rating ZEAMX", "setting": "ZEAMX (Corn, Field); rate 0.0313 kg/ha", "result": 5.0},
      {"measurement": "herbicidal rating ZEAMX", "setting": "ZEAMX (Corn, Field); rate 0.0625 kg/ha", "result": 5.0},
      {"measurement": "herbicidal rating ZEAMX", "setting": "ZEAMX (Corn, Field); rate 0.1250 kg/ha", "result": 5.0},
      {"measurement": "AMBEL rating", "setting": "AMBEL (Ragweed, Common) [4]; 0.0313 kg/ha", "result": 0.0},
      {"measurement": "AMBEL rating", "setting": "AMBEL (Ragweed, Common) [4]; 0.0625 kg/ha", "result": 0.0},
      {"measurement": "AMBEL rating", "setting": "AMBEL (Ragweed, Common) [4]; 0.1250 kg/ha", "result": 1.0},
      {"measurement": "AMBEL rating", "setting": "AMBEL (Ragweed, Common) [4]; 0.2500 kg/ha", "result": 1.0},
      {"measurement": "AMBEL rating", "setting": "AMBEL (Ragweed, Common) [4]; 0.5000 kg/ha", "result": 7.0},
      {"measurement": "CASOB rating", "setting": "CASOB (Sicklepod); 0.0313 kg/ha", "result": 0.0},
      {"measurement": "CASOB rating", "setting": "CASOB (Sicklepod); 0.0625 kg/ha", "result": 0.0},
      {"measurement": "CASOB rating", "setting": "CASOB (Sicklepod); 0.1250 kg/ha", "result": 0.0},
      {"measurement": "CASOB rating", "setting": "CASOB (Sicklepod); 0.2500 kg/ha", "result": 0.0},
      {"measurement": "CASOB rating", "setting": "CASOB (Sicklepod); 0.5000 kg/ha", "result": 8.0},
      {"measurement": "CHEAL rating", "setting": "[5]; 0.0313 kg/ha", "result": 9.0},
      {"measurement": "CHEAL rating", "setting": "[5]; 0.0625 kg/ha", "result": 9.0},
      {"measurement": "CHEAL rating", "setting": "[5]; 0.1250 kg/ha", "result": 9.0},
      {"measurement": "CHEAL rating", "setting": "[5]; 0.2500 kg/ha", "result": 9.0},
      {"measurement": "CHEAL rating", "setting": "[5]; 0.5000 kg/ha", "result": 9.0},
      {"measurement": "GALAP rating", "setting": "GALAP (Galium); 0.0313 kg/ha", "result": 0.0},
      {"measurement": "GALAP rating", "setting": "GALAP (Galium); 0.0625 kg/ha", "result": 1.0},
      {"measurement": "GALAP rating", "setting": "GALAP (Galium); 0.2500 kg/ha", "result": 6.0},
      {"measurement": "GALAP rating", "setting": "GALAP (Galium); 0.5000 kg/ha", "result": 6.0},
      {"measurement": "CYPSE herbicidal effect rating", "setting": "CYPSE (Flatsedge) [6]; 0.0313 kg/ha", "result": 0.0},
      {"measurement": "CYPSE herbicidal effect rating", "setting": "CYPSE (Flatsedge) [6]; 0.0625 kg/ha", "result": 0.0},
      {"measurement": "CYPSE herbicidal effect rating", "setting": "CYPSE (Flatsedge) [6]; 0.1250 kg/ha", "result": 0.0},
      {"measurement": "CYPSE herbicidal effect rating", "setting": "CYPSE (Flatsedge) [6]; 0.2500 kg/ha", "result": 0.0},
      {"measurement": "Herbicidal rating CYPIR", "setting": "CYPIR (Rice Flatsedge); Rate 0.0313 kg/ha", "result": 0.0},
      {"measurement": "Herbicidal rating CYPIR", "setting": "CYPIR (Rice Flatsedge); Rate 0.0625 kg/ha", "result": 0.0},
      {"measurement": "Herbicidal rating CYPIR", "setting": "CYPIR (Rice Flatsedge); Rate 0.1250 kg/ha", "result": 0.0},
      {"measurement": "Herbicidal rating CYPIR", "setting": "CYPIR (Rice Flatsedge); Rate 0.2500 kg/ha", "result": 4.0},
      {"measurement": "Herbicidal rating CYPIR", "setting": "CYPIR (Rice Flatsedge); Rate 0.5000 kg/ha", "result": 9.0},
      {"measurement": "Herbicidal rating CYPSE", "setting": "CYPSE (Flatsedge) [7]; Rate 0.0313 kg/ha", "result": 0.0},
      {"measurement": "Herbicidal rating CYPSE", "setting": "CYPSE (Flatsedge) [7]; Rate 0.0625 kg/ha", "result": 0.0},
      {"measurement": "Herbicidal rating CYPSE", "setting": "CYPSE (Flatsedge) [7]; Rate 0.1250 kg/ha", "result": 0.0},
      {"measurement": "Herbicidal rating CYPSE", "setting": "CYPSE (Flatsedge) [7]; Rate 0.2500 kg/ha", "result": 0.0}
    ]}
  ]
}
